Results published in US20240415819A1, “MACROCYCLIC COMPOUNDS AS PROTEASOME SUBUNIT BETA TYPE-5 INHIBITORS” (Lead Discovery Center GmbH, priority 2021, published 2024).

Legend:
[1] = tested on: MDA-MB-468 (breast carcinoma); assay: 48 hr CTG viability assay, MDA-MB-468; assay type: cell-based; conditions: Homo sapiens
Protocol: A viability assay was conducted for 48 hours to evaluate the inhibition of cancer cell growth by proteasome inhibitors. Briefly, the candidate cell line was plated with a 96-well plate following density of cells, respectively. 6×10^3 Cells/well for A2780 (human ovarian cancer cell line) and MDA-MB-468 (breast carcinoma), 8×10^3 Cells/well for Hs746T (human gastric carcinoma cell line), 1.1×10^4 Cells/well for MM1 S and RPMI 8226 (multiple myeloma). After 24 hours, the cells were treated with various concentrations of the compound (ranging from 0.0015 uM to 10 uM). […] After 48 hours of incubation at 37° C., 5% CO2 incubator, cells were analyzed for viability using the CellTiter-Glo Luminescent Cell Viability assay (Promega, Cat #G7570). All viability assays were performed in duplicate and Luminescence was read using an Envision (Perkin Elmer, USA). Data were analyzed using XLfit software. […] (human gastric carcinoma cell line), MM1 S (B lymphoblast cell line), and RPMI 8226 (B lymphocyte cell line, multiple myeloma). Inhibition is indicated as IC50 [nM] (“-”=not measured).

[2] = molecular target: T1, β5 subunit of the human immunoproteasome (IPS) (Homo sapiens, UniProt P28062); assay: β5 inhibition assay, human immunoproteasome (Suc-LLVY-AMC); assay type: biochemical; conditions: IC50 class, Suc-LLVY-AMC substrate
T1 construct: purchased Boston Biochem E-370
In short: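 β5 activity is read as liberated AMC fluorescence (355/460 nm) after 4 h dark reaction at RT with 22.6 μM Suc-LLVY-AMC, stopped by 1 μM bortezomib. Beforehand, 1 nM human IPS and compound sat 10 min at RT in HEPES pH 7.5 buffer containing NaCl, 0.02% SDS and DTT.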

[3] = tested on: Hs 746T (human gastric carcinoma cell line); assay: 48 hr CTG viability assay, Hs 746T; assay type: cell-based; conditions: Hs746T, 48 hr CTG, read-out: Hs 746T IC50
In short: (§1)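 Growth inhibition by compound over 48 h; IC50 (nM) derived from duplicate CellTiter-Glo luminescence readings across 0.0015–10 uM.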

[4] = tested on: RPMI 8226 (B lymphocyte cell line, multiple myeloma); assay: 48 hr CTG viability assay, RPMI 8226; assay type: cell-based; conditions: Homo sapiens, RPMI-8226; 48 hr CTG; read-out: RPMI-8226 IC50
In short: as §1

[5] = molecular target: T2, β5 subunit of the human constitutive proteasome (CPS) (Homo sapiens, UniProt P28074); assay: β5 inhibition assay, human constitutive proteasome (Suc-LLVY-AMC); assay type: biochemical; conditions: IC50 class, Suc-LLVY-AMC substrate
T2 construct: purchased Boston Biochem E-360
Protocol: The enzymatic activity of the β5 subunit of the human constitutive proteasome (CPS) is analyzed. In another assay, which differs from the assay of the human constitutive proteasome only in using the human immunoproteasome (IPS) the enzymatic activity of the β5 subunit of the human immunoproteasome (IPS) is analyzed. […] Inhibition is indicated as IC50 [nM] (“-”=not measured).

[6] = tested on: A549 (human lung carcinoma cell line); assay: Glo assay of A549 cells (Table 3; ProteasomeGlo plating scheme); assay type: cell-based; conditions: Homo sapiens; A549 cells; read-out: PGLo A549
In short: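 After acoustic compound transfer, plates incubate 105 min (37° C., 5% CO2). Proteasome-Glo reagent containing Suc-LLVY-Glo substrate is added, plates are shaken, then luminescence is measured after 10-15 min to derive IC50 [nM]. Staurosporine and DMSO serve as controls.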

[7] = tested on: MM1 S (B lymphoblast cell line); assay: 48 hr CTG viability assay, MM1S; assay type: cell-based; conditions: Homo sapiens, 48 hr CTG, read-out: MM1S IC50
In short: as §1

HT-29 cells = assay: CellTiter-Glo luminescent cell viability assay with HT-29 cells (72h incubation); assay type: cell-based, human; conditions: Homo sapiens, HT-29, HT29 cells, read-out: CTG HT29
In short: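 Viability read as CellTiter-Glo luminescence after 72 h compound exposure, with 10 μM staurosporine and DMSO as control wells. Seeding 400 cells per well, compound added 24 h post-plating; IC50 from curve fitting.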

Karpas cells = assay: Glo assay of Karpas cells (Table 3; ProteasomeGlo plating scheme); assay type: cell-based; conditions: read-out: Pglo Karpas
Excerpt: Inhibition is indicated as IC50 [nM] (“-”=not measured). […] • Chymotrypsin-Like Cell-Based Proteasome-GloTM Assay (Promega; […]) • Cell culture 384-well plates (Greiner BioOne; 781080) • Dispensing cassette, MultiDrop Standard tube dispensing cassette (Thermo Scientific; 24072670) • DPBS (Pan BioTech; P04-36500) • Cell culture 384-well plates (Greiner BioOne; 781080) • CPD source plate: diamond-shape plate (Labcyte; LP-0200) • Intermediate plate (Labcyte; P-05525) [table] • a. Remove the plates with cells from the incubator. • b. Take all the plates including the compound plate, intermediate plate and Staurosporine plate to the ECHO. • c. Click on “Open” in the ECHO software and select the protocol “QLI5_25ul_30 uM-Grenier”. • d. Follow the on-screen prompts and instructions once you click “Start” to insert the compound plate, intermediate plate and destination plates. • e. Change the final number of destination plates on the program. • f. Follow the on-screen prompts and instructions once you click “Start” to load the Staurosporine and destination plates. • g. Once all the compounds, DMSO and Staurosporine have been transferred, place the destination plates in a wet tissue box. • h. Place the destination plates back into the incubator and incubate at 37° C., 5% CO2 for 105 minutes. • i. Re-seal all the compound+Stauro diamond and intermediate plates and store in the dark. Chymotrypsin like ProteasomeGlo Assay • 1. Thaw the components of the ProteasomeGlo assay at room temperature including the ProteasomeGlo Buffer, the lyophilized Luciferin Detection Reagent and the Suc-LLVY-Glo Substrate. • 2. Reconstitute the Luciferin Detection Reagent in the amber coloured bottle by adding 50 ml of the ProteasomeGlo Buffer. • 3. Vortex the Suc-LLVY-Glo Substrate briefly to reconstitute the Substrate well. • 4. Spin down the Substrate and add 250 μl of the Substrate to the reconstituted Luciferin Detection Reagent from step 2. • 5. Briefly vortex the amber bottle with the mix to prepare a homogenous solution. • 6. Place the mix prepared in step 5 to sit at room temperature for 60 minutes. • 7. After 60 minutes, pipette 25 μl of the mix from step 5 into all wells with the cells. • 8. Shake the plates for 2-5 minutes to ensure the complete mixing of the ProteasomeGlo reagent with the cells. • 9. Leave the plates in the dark for 10-15 minutes. • 10. Measure the luminescence read-out using the Viktor and the protocol “Luminescence_384Well_0.2 sec”. (Note: The Protoeasome-GloTM Reagent (combined Proteasome-GloTM Substrate, Proteasome-GloTM Buffer and Luciferin Detection Reagent) can be stored at 4° C. or -20° C. for 1 month with minimal loss of activity.)

Row | IC50 [1] [nM] | IC50 [2] [nM] | IC50 [3] [nM] | IC50 [4] [nM] | IC50 [5] [nM] | IC50 [6] [nM] | IC50 [7] [nM] | IC50 (HT-29 cells) [nM] | IC50 (Karpas cells) [nM] | Structure (SMILES)
1 | < 100 | < 100 | < 100 | < 100 | < 100 | < 100 | < 100 |  |  | Cc1ccc2cc1CNC(=O)[C@H](CCc1cccnc1)NC(=O)[C@@H](NC(=O)C(C)(C)CO)CC(=O)N1CCCC(CCO2)C1 (stereo partly drawn) [Compound 683, 3-hydroxy-2,2-dimethyl-N-((9S,12S)-5^4-methyl-8,11,14-trioxo-9-(2-(pyridin-3-yl)ethyl)-4-oxa-7,10-diaza-1(3,1)-piperidina-5(1,3)-benzenacyclotetradecaphane-12-yl)propanamide]
2 | < 100 | < 100 | < 100 | < 100 | < 100 | < 100 | < 100 |  |  | Cc1ccc2cc1CNC(=O)[C@H](CCc1ccccc1)NC(=O)[C@@H](NC(=O)C1(CO)CCOCC1)CC(=O)N1CCCC(CCO2)C1 (stereo partly drawn) [Compound 671, 4-(hydroxymethyl)-N-((9S,12S)-5^4-methyl-8,11,14-trioxo-9-phenethyl-4-oxa-7,10-diaza-1(3,1)-piperidina-5(1,3)-benzenacyclotetradecaphane-12-yl)tetrahydro-2H-pyran-4-carboxamide]
3 | < 100 |  | < 100 | < 100 |  |  | < 100 |  |  | Cc1ccc2cc1CNC(=O)[C@H](CCc1ccccc1)NC(=O)[C@@H](NC(=O)Cc1ccc(NC(=O)[C@@H](N)CCC(=O)O)cc1C)CC(=O)N1CCCC(CCO2)C1 (some centres unmarked) [Compound 574]
4 | < 100 | < 100 | < 100 | < 100 | < 100 | < 100 | < 100 |  |  | Cc1ccc2cc1CNC(=O)[C@H](CCc1ccccc1)NC(=O)[C@@H](NC(=O)C1(CO)CC1)CC(=O)N1CCCC(CCO2)C1 (stereo partly drawn) [Compound 664, 1-(hydroxymethyl)-N-((9S,12S)-5^4-methyl-8,11,14-trioxo-9-phenethyl-4-oxa-7,10-diaza-1(3,1)-piperidina-5(1,3)-benzenacyclotetradecaphane-12-yl)cyclopropane-1-carboxamide]
5 | 1000 to 5000 | < 100 | 500 to 1000 | 500 to 1000 | < 100 | 100 to 500 | 100 to 500 |  |  | Cc1ccc2cc1CNC(=O)[C@H](CCc1ccccc1)NC(=O)[C@@H](NC(=O)C1(CO)CCNCC1)CC(=O)N1CCCC(CCO2)C1 (stereo partly drawn) [Compound 730, 4-(hydroxymethyl)-N-((9S,12S)-5^4-methyl-8,11,14-trioxo-9-phenethyl-4-oxa-7,10-diaza-1(3,1)-piperidina-5(1,3)-benzenacyclotetradecaphane-12-yl)piperidine-4-carboxamide]
6 | < 100 | < 100 | < 100 | < 100 | < 100 | < 100 | < 100 |  |  | Cc1ccc2cc1CNC(=O)[C@H](CCc1ccccc1)NC(=O)[C@@H](NC(=O)N1CCc3cc(N)ccc31)CC(=O)N1CCCC(CCO2)C1 (stereo partly drawn) [Compound 704, 5-amino-N-((9S,12S)-5^4-methyl-8,11,14-trioxo-9-phenethyl-4-oxa-7,10-diaza-1(3,1)-piperidina-5(1,3)-benzenacyclotetradecaphane-12-yl)indoline-1-carboxamide]
7 | > 5000 | < 100 | > 5000 | 1000 to 5000 | 100 to 500 | > 5000 | 1000 to 5000 |  |  | Cc1ccc2cc1CNC(=O)[C@H](CCc1ccccc1)NC(=O)[C@@H](NC(=O)C(C)(C)CO)CC(=O)NCCCCO2 [Compound 735, 3-hydroxy-2,2-dimethyl-N-((10S,13S)-1^4-methyl-8,11,14-trioxo-13-phenethyl-2-oxa-7,12,15-triaza-1(1,3)-benzenacyclohexadecaphane-10-yl)propanamide]
8 | < 100 | < 100 | < 100 | < 100 | < 100 | < 100 | < 100 |  |  | Cc1ccc2cc1CNC(=O)[C@H](CCc1ccccc1)NC(=O)[C@@H](NC(=O)C(F)(F)CO)CC(=O)N1CCCC(CCO2)C1 (stereo partly drawn) [Compound 599, 2,2-difluoro-3-hydroxy-N-((9S,12S)-5^4-methyl-8,11,14-trioxo-9-phenethyl-4-oxa-7,10-diaza-1(3,1)-piperidina-5(1,3)-benzenacyclotetradecaphane-12-yl)propanamide]
9 | 1000 to 5000 | < 100 | > 5000 | 500 to 1000 | < 100 | 1000 to 5000 | 1000 to 5000 |  |  | Cc1ccc2cc1CNC(=O)[C@H](CCc1ccccc1)NC(=O)[C@@H](NC(=O)C(C)(C)CO)CCC(=O)NCCCO2 [Compound 732, 3-hydroxy-2,2-dimethyl-N-((10S,13S)-1^4-methyl-7,11,14-trioxo-13-phenethyl-2-oxa-6,12,15-triaza-1(1,3)-benzenacyclohexadecaphane-10-yl)propanamide]
10 |  | < 100 |  |  | < 100 | 1000 to 5000 |  | 1000 to 5000 | 500 to 1000 | Cc1ccc2cc1CNC(=O)[C@H](CCc1ccccc1)NC(=O)CCCC(=O)N1CCCC(CCO2)C1 (stereo partly drawn) [Compound 19, (9S)-5^4-methyl-9-phenethyl-4-oxa-7,10-diaza-1(3,1)-piperidina-5(1,3)-benzenacyclopentadecaphane-8,11,15-trione]
